Paper PMC8350395, “Hsa-miR-4277 Decelerates the Metabolism or Clearance of Sorafenib in HCC Cells and Enhances the Sensitivity of HCC Cells to Sorafenib by Targeting cyp3a4” (Frontiers in Oncology, 2021)
Where two headings read alike, the source gives them in different places.

Experiments:
MHCC97-H cells [1] = assay: Assessment of cell survival (MTT); format: cell-based; details: Homo sapiens, MHCC97H, 48 h
Experimental: (§1) After transfection or treated with potential inhibitor of cyp3a4, HCC cells were treated with a series concentrations of sorafenib, lenvatinib, cabozantinib, regorafenib, anlotinib, or apatinib (10 μmol/L, 3 μmol/L, 1 μmol/L, 0.3 μmol/L, 0.1 μmol/L, 0.03 μmol/L, or 0.01 μmol/L). After 48 h, MTT was performed to measure ell survival, and the IC50 value of each agent was calculated ([36]–[38]).
The *P < 0.05 being statistically significant between groups.

in vitro = details: human
Experimental: (§2) HCC cells were used to examine the rate of elimination of sorafenib ([18], [19], [34], [35]). For cell-based experiments, HCC cells were treated with 1 μmol/L of sorafenib for 12 h. After treatment, the cells were harvested at a series of time-points. For in vivo experimentation, HCC cells were cultured and subcutaneously injected into mice to generate tumors. When tumor volume reached 2000 mm^3, a solution of sorafenib was directly injected into the tumors. After injection, the tumors were excised at a series of time-points. Next, sorafenib was extracted from MHCC97-H cells or tumors using the acetonitrile (ACN). The sustaining amount of sorafenib at each time-point was measured using liquid chromatography–mass spectrometry/mass spectrometry (LC-MS/MS) and the in vitro/in vivo half-life of sorafenib was determined ([18], [19], [34], [35]).
(§3) SPSS 9.0 statistical software (IBM Corporation, Armonk, NY, USA) was used for all statistical analyses. Statistics were calculated using two-way ANOVA with the Bonferroni correction. IC50 values and the half-lie values (t1/2 values) were calculated using Origin software (Origin 6.1; OriginLab Corporation, Northampton, MA, USA). The *P < 0.05 being statistically significant between groups. The heat-map of the qPCR results were obtained according to the methods by Zhou et al. ([41]) and Yin et al. ([42]).

in vivo = details: nude, mouse, in vivo, t1/2 of Sorafenib
Experimental: as §2, §3

[2] = test system: subcutaneous tumors formed by MHCC97-H cells; assay: in vivo
Experimental: as §2, §3

[3] = Assessment of sorafenib elimination in cultured HCC cells (LC-MS/MS); format: in vitro ADME; details: human, read-out: t1/2 values (converted)
Experimental: as §2, §3

BEL-7402 = assay: Assessment of cell survival (MTT); format: cell-based; details: Homo sapiens, Bel-7402, 48 h
Experimental: as §1, §3

SMMC-7721 = assay: Assessment of cell survival (MTT); format: cell-based; details: Homo sapiens, SMMC-7721, 48 h
Experimental: as §1, §3

[4] = test system: patients with advanced HCC; format: in vivo, human; details: advanced HCC patients receiving sorafenib
Text: The endogenous mRNA levels of cyp3a4 in HCC clinical specimens were identified using quantitative polymerase chain reaction (qPCR) in accordance with methods described by Wang et al. ([20]) and Ma et al. ([20], [25]). […] The results (the relative expression level [folds of β-Actin]) of PXR or CAR was shown as heat-map.

MHCC97-H cells [5] = assay: Nude mouse subcutaneous tumor model; format: in vivo, nude mice
Experimental: All animal experiments were reviewed approved by the Institutional Animal Care and Use Committee, the Fifth Medical Center, Chinese PLA. All animal experiments were performed in accordance with the UK Animals (Scientific Procedures) Act, 1986 and the associated guidelines. Female nude mice were purchased from the Si-Bei-Fu Corporation, Beijing China. Following transfection, MHCC97-H cells were prepared as a single-cell suspension and subcutaneously injected into nude mice ([39], [40]). The mice orally received sorafenib once every two days. Tumors from the mice were harvested, and the volumes and weights were measured ([39], [40]).

[6] = control miRNA, read-out: IC50 values of the agents on MHCC97-H cells
[7] = miR-4277 + CYP3A4^Mut, read-out: IC50 values of the agents on MHCC97-H cells
[8] = miR-4277 + CYP3A4^Mut-1, read-out: IC50 values of the agents on MHCC97-H cells
[9] = miR-4277 + CYP3A4^Mut-2, read-out: IC50 values of the agents on MHCC97-H cells
[10] = miR-4277, read-out: IC50 values of the agents on MHCC97-H cells
[11] = CYP3A4 mRNA expression High (n = 26)
[12] = CYP3A4 mRNA expression Low (n = 26)

## COc1cc2nccc(Oc3ccc(NC(=O)C4(C(=O)Nc5ccc(F)cc5)CC4)cc3)c2cc1OC [Cabozantinib]
MHCC97-H cells [1]; [6]
  IC50: 0.51 ± 0.19 µM
MHCC97-H cells [1]; [7]
  IC50: 0.56 ± 0.15 µM
MHCC97-H cells [1]; [8]
  IC50: 0.25 ± 0.06 µM
MHCC97-H cells [1]; [9]
  IC50: 0.3 ± 0.21 µM
MHCC97-H cells [1]; [10]
  IC50: 0.1 ± 0.04 µM

## COc1cc2c(Oc3ccc4[nH]c(C)cc4c3F)ccnc2cc1OCC1(N)CC1 [Anlotinib]
MHCC97-H cells [1]; [6]
  IC50: 0.75 ± 0.03 µM
MHCC97-H cells [1]; [7]
  IC50: 0.78 ± 0.55 µM
MHCC97-H cells [1]; [8]
  IC50: 0.3 ± 0.12 µM
MHCC97-H cells [1]; [9]
  IC50: 0.45 ± 0.35 µM
MHCC97-H cells [1]; [10]
  IC50: 0.1 ± 0.01 µM

## COc1cc2nccc(Oc3ccc(NC(=O)NC4CC4)c(Cl)c3)c2cc1C(N)=O [Lenvatinib]
MHCC97-H cells [1]; [6]
  IC50: 0.55 ± 0.2 µM
MHCC97-H cells [1]; [7]
  IC50: 0.6 ± 0.2 µM
MHCC97-H cells [1]; [8]
  IC50: 0.41 ± 0.01 µM
MHCC97-H cells [1]; [9]
  IC50: 0.28 ± 0.11 µM
MHCC97-H cells [1]; [10]
  IC50: 0.12 ± 0.06 µM

## N#CC1(c2ccc(NC(=O)c3cccnc3NCc3ccncc3)cc2)CCCC1 [Apatinib]
MHCC97-H cells [1]; [6]
  IC50: 0.96 ± 0.33 µM
MHCC97-H cells [1]; [7]
  IC50: 0.98 ± 0.37 µM
MHCC97-H cells [1]; [8]
  IC50: 0.52 ± 0.27 µM
MHCC97-H cells [1]; [9]
  IC50: 0.46 ± 0.3 µM
MHCC97-H cells [1]; [10]
  IC50: 0.26 ± 0.07 µM

## CNC(=O)c1cc(Oc2ccc(NC(=O)Nc3ccc(Cl)c(C(F)(F)F)c3)c(F)c2)ccn1 [Regorafenib]
MHCC97-H cells [1]; [6]
  IC50: 0.67 ± 0.49 µM
MHCC97-H cells [1]; [7]
  IC50: 0.71 ± 0.28 µM
MHCC97-H cells [1]; [8]
  IC50: 0.33 ± 0.32 µM
MHCC97-H cells [1]; [9]
  IC50: 0.35 ± 0.09 µM
MHCC97-H cells [1]; [10]
  IC50: 0.22 ± 0.04 µM

## CNC(=O)c1cc(Oc2ccc(NC(=O)Nc3ccc(Cl)c(C(F)(F)F)c3)cc2)ccn1 [Sorafenib]
In vitro
  half-life at 1 μmol/L: 21.6 ± 1.34 h
In vitro; MHCC97-H cells (HCC cell line)
  half-life at 1 μmol/L: 23.6 ± 0.7 h
In vitro; MHCC97-H cells (HCC cell line) transfected with miR-4277
  half-life at 1 μmol/L: 38.5 ± 9.97 h
In vitro; MHCC97-H cells (HCC cell line) with miR-4277 + CYP3A4^Mut
  half-life at 1 μmol/L: 19.9 ± 2.71 h
In vitro; MHCC97-H cells (HCC cell line) with miR-4277 + CYP3A4^Mut-1
  half-life at 1 μmol/L: 22.1 ± 6.59 h
In vitro; MHCC97-H cells (HCC cell line) with miR-4277 + CYP3A4^Mut-2
  half-life at 1 μmol/L: 24.7 ± 8.63 h
MHCC97-H cells [1]; MHCC97-H cells, control miRNA, read-out: IC50 of Sorafenib
  IC50: 0.7 ± 0.09 µM
MHCC97-H cells [1]; MHCC97-H cells, miR-4277 + CYP3A4^Mut, read-out: IC50 of Sorafenib
  IC50: 0.92 ± 0.2 µM
MHCC97-H cells [1]; MHCC97-H cells, miR-4277 + CYP3A4^Mut-1, read-out: IC50 of Sorafenib
  IC50: 0.22 ± 0.14 µM
MHCC97-H cells [1]; MHCC97-H cells, miR-4277 + CYP3A4^Mut-2, read-out: IC50 of Sorafenib
  IC50: 0.35 ± 0.05 µM
MHCC97-H cells [1]; MHCC97-H cells, miR-4277, read-out: IC50 of Sorafenib
  IC50: 0.15 ± 0.01 µM
MHCC97-H cells [1]; Solvent control (no CYP3A4 inhibitor), read-out: Sorafenib on MHCC97-H IC50 values
  IC50: 0.68 ± 0.11 µM
In vivo
  half-life: 45.7 ± 5.31 h
[2]; nude, mouse, in vivo
  t1/2 of Sorafenib: 72.79 ± 7.52 h
[2]; subcutaneous MHCC97-H tumors, miR-4277 + CYP3A4^Mut-1, sorafenib injected into tumors
  t1/2 of Sorafenib: 52.38 ± 16.19 h
[2]; subcutaneous MHCC97-H tumors, miR-4277 + CYP3A4^Mut, sorafenib injected into tumors
  t1/2 of Sorafenib: 36.67 ± 12.58 h
[3]; BEL-7402 cells (HCC cell line) with miR-4277 + CYP3A4^Mut, BEL-7402, miR-4277 + CYP3A4^Mut
  half-life at 1 μmol/L: 26.4 ± 3.79 h
[3]; BEL-7402 cells (HCC cell line) with miR-4277, BEL-7402, miR-4277
  half-life at 1 μmol/L: 42.4 ± 3.33 h
[3]; BEL-7402 cells (HCC cell line), BEL-7402, control
  half-life at 1 μmol/L: 28.2 ± 8.67 h
[3]; HepG2 cells (HCC cell line) with miR-4277 + CYP3A4^Mut, HepG2, miR-4277 + CYP3A4^Mut
  half-life at 1 μmol/L: 25.7 ± 4.47 h
[3]; HepG2 cells (HCC cell line) with miR-4277, HepG2, miR-4277
  half-life at 1 μmol/L: 56.4 ± 1.9 h
[3]; HepG2 cells (HCC cell line), HepG2, control
  half-life at 1 μmol/L: 30.3 ± 3.31 h
[3]; SMMC-7721 cells (HCC cell line) with miR-4277 + CYP3A4^Mut, SMMC-7721, miR-4277 + CYP3A4^Mut
  half-life at 1 μmol/L: 27.4 ± 6.93 h
[3]; SMMC-7721 cells (HCC cell line) with miR-4277, SMMC-7721, miR-4277
  half-life at 1 μmol/L: 46.2 ± 2.88 h
[3]; SMMC-7721 cells (HCC cell line), SMMC-7721, control
  half-life at 1 μmol/L: 25.7 ± 2.43 h
BEL-7402; BEL-7402, control
  IC50: 1.79 ± 0.18 µM
BEL-7402; BEL-7402, miR-4277
  IC50: 0.28 ± 0.05 µM
BEL-7402; BEL-7402, miR-4277 + CYP3A4^Mut
  IC50: 2.88 ± 0.35 µM
SMMC-7721; SMMC-7721, control
  IC50: 1.95 ± 0.54 µM
SMMC-7721; SMMC-7721, miR-4277
  IC50: 0.73 ± 0.33 µM
SMMC-7721; SMMC-7721, miR-4277 + CYP3A4^Mut
  IC50: 1.92 ± 0.55 µM
[4]; [11]
  OS (overall survival): 8.0 M
  TTP (time to progress): 9.0 M
[4]; [12]
  OS (overall survival): 15.0 M
  TTP (time to progress): 11.0 M
MHCC97-H cells [5]; 0.5 mg/kg dose of sorafenib, oral, control-transfected cells
  subcutaneous growth of MHCC97-H cells: had no effect
MHCC97-H cells [5]; oral sorafenib once every two days, indicated doses, nude mice
  subcutaneous growth of HCC cells (tumor volumes, tumor weights): inhibited the subcutaneous growth of HCC cells in a dose-dependent manner
